In publication PMC7724566, “Prospects for Clinical Development of Stat5 Inhibitor IST5-002: High Transcriptomic Specificity in Prostate Cancer and Low Toxicity In Vivo” (Cancers, 2020):

Legend:
Stat5 = molecular target: T1, Stat5 (Homo sapiens, UniProt P42229); assay: Native-gel-based Stat5 dimerization assay, CWR22Rv1 cells; type: cell-based; details: 1 µM, 6 h, Prl (10 nM) stimulated CWR22Rv1 cells, STAT5A-eYFP
T1 construct: expressed in transfected cells; host or cells: CWR22Rv1
Text: Having established that IST5 and IST5-M both interrupt phosphorylation of Stat5, we next investigated the potency of IST5-M vs. IST5 in suppressing dimerization of Stat5 in PC cells. First, we performed a native Polyacrylamide Gel Electrophoresis (PAGE) based Stat5 dimerization assay established originally by Fahrenkamp et al., where CWR22Rv1 cells were transfected with STAT5A-eYFP (Stat5 wild type), STAT5A-N642H-eYFP (constitutive activated Stat5 by N642H mutation, as a positive control) or STAT3-eYFP (Stat3 wild type, as a negative control) constructs for 3 days (Figure 5A). CWR22Rv1 cells were starved for 16 h, pretreated with vanadate (1 mM) for 2 h, followed by treatment with vehicle, IST5 or IST5-M (1 µM) for 6 h and stimulation with Prl (10 nM) for 1 h.
Figure 5 Both IST5 and IST5-M suppress dimerization of Stat5 with similar efficacies in prostate cancer cells. (A), IST5 and IST5-M inhibit equally potently dimerization of Stat5 in native-gel-based Stat5 dimerization assay. […] Dimerization of Stat5 was analyzed by detection of the eYFP fluorescence of the native Coomassie gel. […] (E), differences in posttranslational modifications were detected between native and recombinant STAT5a using mass spectrometry. Native STAT5a from CWR22Rv1 cells and recombinant STAT5a from E. coli were gel-purified, digested using trypsin, and analyzed by bottom-up mass spectrometry. […]

[1] = system: chronic myeloid leukemia (CML) cells; design: method as in PMID 26026053; details: cited from earlier work
panel of 54 kinases = assay: Cell-free kinase panels, overall; type: biochemical; details: 1 µM
Text: Given that IST5 suppresses phosphorylation of Stat5 in PC cells, it is possible that IST5 inhibits the kinase(s) responsible for Stat5 phosphorylation and activation in PC cells. To evaluate if IST5 affects kinase activity in cancer cells, we tested kinase inhibitory activity of IST5 in two custom-tailored panels including 54 relevant kinases (Table 1), including Jak1, Jak2, Jak3, Tyk2, Abl1, Abl2, Lck, Fyn, Src and TrkB/C. In addition, we further tested if IST5 inhibits tyrosine phosphorylation of Jak1, Jak2, Jak3 or Tyk2 using a cell-based assay (Figure 5D), where phosphorylation of the kinase is indicative of enzymatic kinase activity. DU145 and CWR22Rv1 cells were treated with IST5 (6 µM) for 6 h followed by immunoprecipitation of Jak1, Jak2, Jak3 and Tyk2 and immunoblotting with anti-phospho-tyrosine antibody. […]
For Jak1, Jak2, Jak3 and Tyk2, a radiometric filtration binding assay was conducted by Reaction Biologicals (Malvern, PA, USA) (Table 1). […] For evaluation of the activity of the other kinases, the Kinase Seeker Technology was utilized (Luceome Biotechnologies, Tucson, AZ, USA), which is a luminescence-based cell-free assay. […] The competitive displacement of the probe by an inhibitor is measured by a change in luminescence signal. […]

T1 sequence (P42229 whole entry, species assumed): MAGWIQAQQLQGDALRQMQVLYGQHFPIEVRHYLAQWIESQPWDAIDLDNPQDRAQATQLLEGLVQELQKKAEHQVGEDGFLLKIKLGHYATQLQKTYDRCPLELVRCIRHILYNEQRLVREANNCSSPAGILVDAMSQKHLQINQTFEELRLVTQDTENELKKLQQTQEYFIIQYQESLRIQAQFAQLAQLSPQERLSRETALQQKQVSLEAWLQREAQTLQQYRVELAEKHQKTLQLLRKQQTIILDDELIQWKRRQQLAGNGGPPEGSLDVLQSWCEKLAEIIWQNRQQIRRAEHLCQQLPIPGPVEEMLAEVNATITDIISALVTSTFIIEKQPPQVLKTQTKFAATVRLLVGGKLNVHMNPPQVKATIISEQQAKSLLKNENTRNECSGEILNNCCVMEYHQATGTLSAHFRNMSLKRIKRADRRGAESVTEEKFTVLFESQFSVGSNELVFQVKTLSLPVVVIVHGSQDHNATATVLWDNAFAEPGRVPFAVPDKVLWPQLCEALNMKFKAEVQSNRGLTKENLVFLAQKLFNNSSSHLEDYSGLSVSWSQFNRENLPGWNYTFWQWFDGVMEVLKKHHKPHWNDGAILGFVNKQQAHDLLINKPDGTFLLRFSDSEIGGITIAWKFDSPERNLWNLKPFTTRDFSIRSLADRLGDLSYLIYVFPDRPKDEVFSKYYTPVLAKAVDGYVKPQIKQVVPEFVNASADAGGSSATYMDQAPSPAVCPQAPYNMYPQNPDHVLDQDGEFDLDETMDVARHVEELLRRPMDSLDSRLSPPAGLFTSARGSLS

O=P(O)(O)OCC1OC(n2cnc3c(NCc4ccccc4)ncnc32)C(O)C1O (stereo not drawn) [IST5]
inhibition of Stat5 dimerization (Stat5): inhibited robustly
efficacy in CML cells [1]: remarkable efficacy
inhibitory activity against the kinases of Table 1 (panel of 54 kinases): no significant inhibitory activity
